Measurements taken from article PMC7675582, “Time-Dependent Fluorescence Spectroscopy to Quantify Complex Binding Interactions” (ACS Omega, 2020).

Target: T1, galectin-3 (Homo sapiens, UniProt P17931)
T1 construct: gene LGALS3; recombinant human galectin-3, GST-purified with the GST tag removed
Experiment: intrinsic tryptophan fluorescence lifetime titration (direct waveform recording, excitation at […] nm), fit with n = […]
Type: binding

T1 sequence (P17931 2-250): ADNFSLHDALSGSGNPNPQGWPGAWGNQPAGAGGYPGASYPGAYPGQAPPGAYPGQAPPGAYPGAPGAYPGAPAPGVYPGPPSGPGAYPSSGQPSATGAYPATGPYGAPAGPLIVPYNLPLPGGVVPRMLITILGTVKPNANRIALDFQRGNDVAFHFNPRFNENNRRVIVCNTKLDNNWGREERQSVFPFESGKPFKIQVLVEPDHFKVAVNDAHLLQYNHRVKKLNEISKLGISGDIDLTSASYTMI

**Q.** For `COC1O[C@H](CO)[C@@H](O[C@@H]2O[C@H](CO)[C@H](O)[C@H](O)[C@H]2O)[C@H](O)[C@H]1O` (stereo partly shown) [methyllactose], which Kd is on record?
**A.** 54 ± 10 µM
